{"source": "a melting point compilation (Tetko et al.)"}
{"units": {"melting point": "°C"}}
{"smiles": "CC(C)(C)OC(=O)N1CCN(c2ccc(N)nc2)CC1", "melting point": "131 to 133"}
{"smiles": "O=C1N[C@H](C(=O)O)CS1", "melting point": "166 to 170"}
{"smiles": "Cn1c(CO)nc2cc(C(F)(F)F)ccc21", "melting point": "170 to 172"}
{"smiles": "COCCOc1ccc(C(N)=S)cc1", "melting point": "141 to 143"}
{"smiles": "FC(F)(F)c1cccc(-c2ccc(Cl)nn2)c1", "melting point": "133 to 135"}
{"smiles": "O=[N+]([O-])c1ccccc1OCC1CO1", "note": "(stereo unspecified)", "melting point": "52 to 54"}
{"smiles": "O=C(CCl)NCc1cn(Cc2ccccc2)nc1-c1ccccc1", "melting point": "82 to 84"}
{"smiles": "Cc1ccc(-c2nn(-c3ccccc3)cc2/C=C/C(=O)O)o1", "melting point": "238 to 240"}
{"smiles": "O=C(CCl)NCc1ccc(-c2ccc(Cl)cc2)o1", "melting point": "213 to 218"}
{"smiles": "O=C(O)c1cnoc1-c1ccco1", "melting point": "195 to 197"}
{"smiles": "Cc1ccc(-n2nc(C(=O)O)c3c2CCC3)cc1", "melting point": "224 to 226"}
{"smiles": "COc1cc(C=O)c([N+](=O)[O-])cc1OCc1ccccc1", "melting point": "130 to 132"}
{"smiles": "O=S1(=O)C=CC(N=C=S)C1", "note": "(stereo unspecified)", "melting point": "61 to 63"}
{"smiles": "O=S(=O)(Cl)c1csc(-c2cccc(Br)c2)n1", "melting point": "94 to 96"}
{"smiles": "CC(C)c1cnc(S)n1C(C)C", "melting point": "177 to 179"}
{"smiles": "Nc1nc(-c2cccs2)c(-c2cccs2)s1", "melting point": "139 to 141"}
{"smiles": "CC(C)(C)c1ccccc1OCC(=O)O", "melting point": "144 to 148"}
{"smiles": "O=C1OC(C=Cc2ccccc2)=NC1=Cc1cccnc1", "melting point": "165 to 167"}
{"smiles": "Cc1nc2ccnn2c(C)c1CCC(=O)O", "melting point": "223 to 225"}
{"smiles": "CN1C(=O)CC(O)C1=O", "note": "(stereo unspecified)", "melting point": "82 to 87"}
{"smiles": "CCOC(=O)c1ncsc1NC", "melting point": "92 to 94"}
{"smiles": "c1ccc(CCc2nnn[nH]2)cc1", "melting point": "96 to 98"}
{"smiles": "N#Cc1cc(F)ccc1S(=O)(=O)Cl", "melting point": "64 to 66"}
{"smiles": "O=C(O)C1CCCN(C(=O)c2ccncc2)C1", "note": "(stereo unspecified)", "melting point": "258 to 260"}
{"smiles": "O=C(CBr)c1cccc(N2CCCC2=O)c1", "melting point": "83 to 85"}
{"smiles": "NC(=O)c1ccc(=O)[nH]c1", "melting point": "316 to 318"}
{"smiles": "Cc1c(C#N)c(NC(=O)CCl)n(Cc2ccc(F)cc2)c1C", "melting point": "279 to 281"}
{"smiles": "O=C1CC(C(=O)O)CS1", "note": "(stereo unspecified)", "melting point": "108 to 110"}
{"smiles": "CC1(C)CCC(C#N)=C1N", "melting point": "108 to 110"}
{"smiles": "Nc1cccc(C(=O)NCc2ccccc2F)c1", "melting point": "204 to 206"}
{"smiles": "COc1cc(C(=O)Oc2ccc(C=O)cc2)cc(OC)c1OC", "melting point": "113 to 115"}
{"smiles": "CC1(C)CC(NC(=O)CCl)CC(C)(C)N1", "melting point": "61 to 63"}
{"smiles": "NS(=O)(=O)Cc1ccc(C(=O)O)cc1", "melting point": "275 to 277"}
{"smiles": "Cc1sc2nc(C)n(N)c(=O)c2c1C", "melting point": "204 to 206"}
{"smiles": "OCc1cccc(OCC(F)(F)F)c1", "melting point": "30 to 32"}
{"smiles": "CCOC(=O)CNC(=O)NCC(=O)OCC", "melting point": "146 to 148"}
{"smiles": "Nc1cc(Cl)c(Cl)c(C(=O)O)c1", "melting point": "199 to 201"}
{"smiles": "O=C1CCCc2nc(-c3ccccc3Br)sc21", "melting point": "130 to 132"}
{"smiles": "Nc1cccc(-c2nccs2)c1", "melting point": "62 to 64"}
{"smiles": "CSc1ccc(CN2CCNCC2)cc1", "melting point": "53 to 55"}
{"smiles": "O=c1c(Cl)nccn1C1CC1", "melting point": "90 to 92"}
{"smiles": "NC(=O)CCCl", "melting point": "142 to 144"}
{"smiles": "CCOc1ccc(S(=O)(=O)N2CCNCC2)cc1OCC", "melting point": "132 to 134"}
{"smiles": "CCC1SC(N)=NC1=O", "note": "(stereo unspecified)", "melting point": "188 to 190"}
{"smiles": "O=C(O)C1CCN(C(=O)C2CC2)CC1", "melting point": "211 to 213"}
{"smiles": "CC(C)(C)OC(=O)NC1(C(N)=NO)CCCC1", "melting point": "168 to 170"}
{"smiles": "O=Cc1cn(Cc2ccccc2)nc1-c1cccs1", "melting point": "90 to 91"}
{"smiles": "CC(C#N)CNC(=O)OC(C)(C)C", "note": "(stereo unspecified)", "melting point": "77 to 79"}
{"smiles": "Cc1nonc1N", "melting point": "56 to 58"}
{"smiles": "CCOC(=O)c1cnn2c(O)cc(CCl)nc12", "melting point": "215 to 217"}
{"smiles": "O=C(O)/C(=C\\c1ccccc1)c1ccc(Cl)cc1", "melting point": "179 to 183"}
{"smiles": "O=C(O)c1ccc(S(=O)(=O)NC2CC2)cc1", "melting point": "243 to 245"}
{"smiles": "c1ccc2sc(C3CCNCC3)nc2c1", "melting point": "127 to 129"}
{"smiles": "COc1ccccc1-c1noc(CCl)n1", "melting point": "61 to 63"}
{"smiles": "COCCOc1ccc(CC#N)cc1", "melting point": "49 to 51"}
{"smiles": "CC(=O)NC1(C(N)=NO)CCN(C)CC1", "melting point": "202 to 204"}
{"smiles": "Cc1ccc(OCc2nc(C=O)cs2)cc1", "melting point": "86 to 88"}
{"smiles": "O=C1CN(c2ccccc2)CCCN1", "melting point": "191 to 193"}
{"smiles": "CCC(C)Nc1ccc(C(N)=O)cc1", "note": "(stereo unspecified)", "melting point": "113 to 115"}
{"smiles": "O=C(O)c1cccc(OCc2ccccc2OC(F)F)c1", "melting point": "139 to 141"}
{"smiles": "O=CCCc1nc2ccccc2o1", "melting point": "62 to 64"}
{"smiles": "COC(=O)c1cc([N+](=O)[O-])c(Br)cc1F", "melting point": "72 to 74"}
{"smiles": "CC(C)NC(=O)c1ccc(Cl)c(N)c1", "melting point": "131 to 133"}
{"smiles": "CCCn1c(CCC(=O)O)nc2cc(S(N)(=O)=O)ccc21", "melting point": "259 to 261"}
{"smiles": "O=C(O)C1CC(=O)N(CCN2CCOCC2)C1", "note": "(stereo unspecified)", "melting point": "159 to 161"}
{"smiles": "COC(=O)C(C#N)=NO", "melting point": "122 to 124"}
{"smiles": "O=C1CC2(CCCCC2)Oc2cc(O)ccc21", "melting point": "169 to 171"}
{"smiles": "O=C(O)c1n[nH]ccc1=O", "melting point": "199 to 201"}
{"smiles": "O=C1CCCCC1c1ccc(C(F)(F)F)cc1", "note": "(stereo unspecified)", "melting point": "96 to 98"}
{"smiles": "Nc1ccc(Cl)cc1C(=O)NCC1CC1", "melting point": "152 to 154"}
{"smiles": "N#Cc1ccc(N2CCOCC2)nc1", "melting point": "123 to 125"}
